In patent US8003331B2, “Method for identifying target protein of drug and method for screening therapeutic agent for diabetes using the target protein” (Astellas Pharma Inc., priority 2005, dated 2011):
“Also recorded” adds a separate entry of the source.

Legend:
[1] = tested on: db/db mouse; experiment: blood sugar level and blood lactic acid level in db/db mouse after intraperitoneal administration; format: in vivo; settings: db/db mice, fasting, metformin 300 mg/kg; for hypoglycemic action (blood sugar level): compound 100 mg/kg, 90 and 180 minutes, vs vehicle group; for blood lactic acid level: compound 100 mg/kg, 0, 90, 180 minutes
Source text: As described in the aforementioned Example 6, the compound A and compound B found by the screening method of the present invention have the ability to activate AMPK in cells. Next, whether or not these compounds have the in vivo hypoglycemic action similar to the case of biguanide was examined. At the same time, action of the aforementioned 2 compounds on the increase of blood lactic acid value as an adverse side effect of biguanide was also examined. A total of 15 animals of 11 weeks of age of db/db mouse (BKS.Cg-+Leprdb/+Leprdb/Jcl; CLEA Japan) as a diabetes model mouse were divided into 3 groups, each consisting of 5 animals. […] They were subjected to fasting at the same time with the administration, and blood samples were collected from the tail of each animal 0 minute, 90 minutes and 180 minutes thereafter to measure blood sugar level and blood lactic acid level. The blood sugar level was measured using a simplified blood sugar analyzer (Acu Check Active II; Roche), and the blood lactic acid level was measured using a simplified lactic acid analyzer (Lactate Pro; Arkray Marketing), respectively. In the same manner, 12 animals of the db/db mouse of 18 weeks of age were divided in 3 groups, 4 animals for each. […] In the same manner as the above, they were subjected to fasting at the same time with the administration, and the blood sugar level and blood lactic acid level were respectively measured 0 minute, 90 minutes and 180 minutes thereafter in the same as described in the above.

[2] = molecular target: T1, human ATP5B (Homo sapiens, UniProt P06576); experiment: competitive inhibition of binding of ATP5B and MTX-phenformin; settings: MTX-phenformin 10 μM; free phenformin 10 μM; compounds A and B 'addition of 10'
T1 construct: an attempt was made to amplify complete length cDNA of human ATP5B; made in house; host or cells: cell-free: TNT Quick Coupled Transcription/Translation System (Promega) from pcDNA-ATP5B; GST-DHFR from E. coli BL21

[3] = tested on: AMPK; experiment: AMPK activation ability detection in HeLa S3 cell (anti-phospho AMPK western blotting); format: cell-based, human; settings: phenformin 1 mM, 1 hr; for phosphorylation level (activation) of AMPK: HeLa S3 cell without ATP5B over-expression (empty vector- or pcDNA-LKB1-transferred), concentration of compounds A and B not given; for activation of AMPK in cell over-expressing human ATP5B: pcDNA-ATP5B-transferred HeLa S3 cell, metformin 10 mM
Method: This expression plasmid pcDNA-LKB1 and the pcDNA-ATP5B prepared in the aforementioned Example 5(1) or an empty vector (pcDNA3.1) (Invitrogen) were transferred into HeLa S3 cell. The HeLa S3 cell (ATCC) was cultured in a 6 well culture plate (35 mm in well diameter) until it reached a state of 70% confluent, by adding 2 ml of a minimum essential medium DMEM (Gibco) containing 10% fetal bovine serum (Sigma) to each well of the culture plate. The medium was substituted by 1 ml per well of a serum-free medium OPTI MEM I (Invitrogen), and 3.0 μg/well of each of the empty vector (pcDNA3.1), pcDNA-LKB1 and pcDNA-ATP5B was transiently transferred using Lipofect amine 2000 (Invitrogen). After 12 hours of the culturing, this was substituted by 2 ml/well of DMEM containing 10% of fetal bovine serum from which low molecular substances had been removed by a charcoal treatment, and further cultured for 36 hours. This was further cultured for 1 hour (1 hr) under a condition of adding phenformin (Sigma) to a final concentration of 1 mM or the solvent (DMSO) alone. The medium was discarded, the cells were washed with a phosphate buffer (to be referred to as PBS hereinafter, and then the cells were lysed by adding 0.15 ml of the aforementioned buffer A (however, the NaCl concentration was 150 mM, and various phosphatase inhibitors; 2 mM Na3VO4, 10 mM NaF, 25 mM β-glycerophosphate, 0.2 mM Na2MoO4, 20 nM okadaic acid, were added). The activity of AMPK in the cells was detected at the level of phosphorylation of molecules by a conventionally known SDS electrophoresis and a western blotting which uses an anti-phosphorylation AMPK antibody (Phospho-AMPK-α(Thr172) Antibody, Daiichi Pure Chemicals). In this case, in order to confirm that there is no difference in the amount of protein of AMPKα (an AMPK subunit which undergoes phosphorylation) among samples, a western blotting which uses an anti-AMPKα antibody (Daiichi Pure Chemicals) was simultaneously carried out. […] However, in the cell in which human ATP5B was expressed by transferring pcDNA-ATP5B, activation of AMPK by phenformin treatment was not found.

[4] = molecular target: T1, human ATP5B; experiment: GST-DHFR / MTX-phenformin GST pull-down of 35S-labeled ATP5B; format: binding
Method: Promega) and 0.74 MBq of a radioisotope (redivue Pro-mix L-[35S]; Amersham) and in accordance with the protocols attached thereto. A 15 μl portion of this human ATP5B protein preparation liquid and 1 μg for each of the GST protein or GST-DHFR, purified on the glutathione Sepharose beads, were mixed and shaken at 4° C. for 1 hour after adding 0.3 ml of buffer A thereto. Thereafter, the protein binding to the GST protein or GST-DHFR on beads was co-precipitated by centrifugation. After repeating this operation 4 times, proteins in the precipitate were separated by SDS polyacrylamide gel electrophoresis in accordance with a conventionally known method, and the protein bound to the probe was detected by an autoradiography.

[5] = tested on: TNF-α; experiment: TNF-α gene expression in HeLa S3 cell (real time PCR, corrected by β-actin); format: cell-based, human; settings: okadaic acid 50 nM
Method: The pcDNA-TARDBP or an empty vector (pcDNA3.1) (Invitrogen) was transferred into HeLa S3 cell. Illustratively, the HeLa S3 cell (ATCC) was firstly cultured in a 12 well culture plate until it reached a state of 70% confluent, by adding 1 ml of a minimum essential medium DMEM (Gibco) containing 10% fetal bovine serum (Sigma) to each well of the culture plate. The medium was substituted by 0.5 ml per well of a serum-free medium OPTI MEM I (Invitrogen), and 0.8 μg/well of the pcDNA-TARDBP or pcDNA3.1 was transiently transferred using Lipofect amine 2000 (Invitrogen). After 12 hours of the culturing, this was substituted by 1 ml/well of DMEM containing 10% of fetal bovine serum and further cultured for 12 hours. This was further cultured for 16 hours under a condition of adding or not adding okadaic acid (Wako Pure Chemical Industries) to a final concentration of 50 nM. In this case, […] was added a part of the cells simultaneously with the okadaic acid treatment. The medium was discarded, the cells were washed twice with ice-cooled PBS, and then these cells were frozen and stored at −80° C.
Total RNA was prepared from each cell frozen in the aforementioned Example 9(2), using a reagent for RNA extraction use (Isogen; Nippon Gene) and in accordance with the instructions attached thereto. The thus prepared each total RNA was then treated with a deoxyribonuclease (Nippon Gene), subjected to phenol/chloroform treatment and ethanol precipitation and dissolved in sterile water. Using 1 μg of this total RNA, its reverse transcription into a single-stranded cDNA was carried out in a system of 20 μl using a kit for reverse transcription reaction use (Advantage™ RT-for-PCR Kit; Clontech).
Six oligonucleotides (SEQ ID NO:97 to SEQ ID NO:102) were designed and synthesized as primers of PCR for the measurement of gene expression quantity. A combination of SEQ ID NO:97 and SEQ ID NO:98 was used for human β-actin gene, and a combination of SEQ ID NO:99 and SEQ ID NO:100 for human TNF-α gene, and a combination of SEQ ID NO:101 and SEQ ID NO:102 for human TARDBP gene, respectively. […]
The expression quantities of human TNF-α gene and human TARDBP gene in each sample were corrected by the expression quantity of β-actin gene based on the following equation. [Corrected expression quantity of TNF-α or TARDBP]=[expression quantity of TNF-α or TARDBP gene (raw data)/[expression quantity of β-actin gene (raw data)]
In comparing the expression quantities of TNF-α and TARDBP genes, relative amounts were calculated by regarding the expression quantity in a cell, into which an empty vector (pcDNA3.1) was transferred and which was treated only with the solvent (DMSO), as 100, with the results sown in FIG. 9 and FIG. 10. […]

binding to the ATP5B protein with increasing concentration ([4]; MTX-phenformin 1.0, 10, 100 μM)	Compound	hypoglycemic action (blood sugar level) [1]	influence on binding of ATP5B and MTX-phenformin [2]	phosphorylation level (activation) of AMPK [3]	activation of AMPK in cell over-expressing human ATP5B [3]	binding with human ATP5B (band of about 60 kDa, autoradiography) ([4]; 10 μM MTX-phenformin fixed to GST-DHFR, wild type ATP5B)	blood lactic acid level [1]	action to accelerate expression of TNF-α ([5]; TARDBP high expression cell, compared with control cell)	increase of expression of TNF-α ([5]; control cell (empty vector HeLa S3), 16 hours)
–	Nc1nc(Cl)c2nc[nH]c2n1 [compound B, 6-chloro-9H-purine-2-amine]	hypoglycemic action after 90 minutes and 180 minutes having a significant difference; also recorded: show hypoglycemic action	obstruct binding of ATP5B and MTX-phenformin	significant AMPK activation ability	disappeared	–	–	–	–
clearly detected	CN(Cc1cnc2nc(N)nc(N)c2n1)c1ccc(C(=O)N[C@@H](CCC(=O)NCCCNC(=N)NC(=N)N)C(=O)O)cc1.Cl.Cl [MTX-phenformin, (2S)-5-[(3-{[{[amino(imino)methyl]amino}(imino)methyl]amino}propyl)amino]-2-({4-[[(2,4-diaminopteridin-6-yl)methyl](methyl)amino]benzoyl}amino)-5-oxopentanonic acid dihydrochloride]	–	–	–	–	detected in the form of binding to the GST-DHFR, only under the condition of adding the MTX-phenformin	–	–	–
–	CN(C)C(=N)N=C(N)N [metformin]	significant hypoglycemic action	–	–	not found	–	significant increase	–	–
–	Oc1ccccc1/C=N/c1nc[nH]n1 [compound A, 2-[(E)-(1H-1,2,4-triazol-3-ylimino)methyl]phenol]	hypoglycemic action after 90 minutes and 180 minutes having a significant difference; also recorded: show hypoglycemic action	obstruct binding of ATP5B and MTX-phenformin	significant AMPK activation ability	disappeared	–	did not induce increase; also recorded: without causing in vivo accumulation of lactic acid	–	–
–	C=C1[C@@H](O)[C@@H]2O[C@]3(CC[C@H](/C=C/[C@@H](C)[C@@H]4CC(C)=C[C@@]5(O[C@H](C[C@@](C)(O)C(=O)O)CC[C@H]5O)O4)O3)CC[C@H]2O[C@@H]1[C@@H](O)C[C@H](C)[C@H]1O[C@@]2(CCCCO2)CC[C@H]1C [okadaic acid]	–	–	–	–	–	–	almost the same	up to 80 times
